{"source": "patent US10245252B2", "about": "“Use of alkylamidothiazoles in cosmetic or dermatological preparations for the prophylaxis or treatment of sensitive skin” (BEIERSDORF AG, priority 2013, dated 2019)", "type_in_all_cases": "cell-based", "key": {"human dermal fibroblasts": {"tested_on": "human dermal fibroblasts", "test": "LPS-induced prostaglandin E2 formation in human dermal fibroblasts, ELISA of cell culture supernatant", "conditions": "incubation for 24 hours with LPS and increasing concentrations, FIG. 2, compared with diclofenac", "protocol": "(§1) In further experiments it was investigated whether the inhibition of the NFκB activation also actually reduces the subsequent secretion of pro-inflammatory mediators. By way of example, the results of two experiments are documented in the figures. By incubation of human dermal fibroblasts with lipopolysaccharides (LPS), the formation of the pro-inflammatory prostaglandin E2 was induced in the cells, and a specific ELISA was used to determine the concentration in the cell culture supernatant, following incubation for 24 hours with LPS and increasing concentrations of the substances according to the invention. […] In the next experiment, the release of interleukin 1β (IL-1β) from blood leukocytes following stimulation by LPS and simultaneous incubation (for 24 hours) with the substances according to the invention was measured. […] The anti-inflammatory activity level of the alkylamidothiazoles is thus that of recognized pharmacological standards, although higher concentrations of the substances according to the invention do have to be used."}, "blood leukocytes": {"tested_on": "blood leukocytes", "test": "release of interleukin 1β from blood leukocytes following stimulation by LPS", "conditions": "FIG. 3", "protocol": "as §1"}, "NFκB": {"tested_on": "NFκB", "test": "NFκB activity assay (commercial assay from Cell Culture Service GmbH), NFκB activated by TNF-alpha", "conditions": "NFκB activated by adding TNF-alpha; FIG. 1; very low concentrations", "from_the_text": "The nuclear factor kappa B (NFκB) is a master regulator of inflammation. The expression of many pro-inflammatory mediators (e.g. cytokines and chemokines) is controlled by NFκB. The inhibition of the activation of NFκB is therefore an important mechanism for minimizing inflammation processes. To measure the NFκB activity, a commercial assay from Cell Culture Service GmbH, Hamburg, was used. In this test, NFκB is activated by adding the pro-inflammatory mediator TNF-alpha. The addition of the alkylamidothiazoles according to the invention prevents the TNF-alpha effect in a dose-dependent manner."}}}
{"smiles": "CC(C)C(=O)Nc1nc(-c2ccc(O)cc2O)cs1", "note": "[N-(4-(2,4-dihydroxyphenyl)thiazol-2-yl)isobutyramide]", "values": [{"measurement": "release of PGE2", "setting": "human dermal fibroblasts", "value": "very significantly reduces the release of PGE2 to a level which is comparable to the pharmacological standard diclofenac"}, {"measurement": "release of interleukin 1β (IL-1β)", "setting": "blood leukocytes; LPS stimulation and simultaneous incubation for 24 hours", "value": "very good anti-inflammatory effectiveness"}, {"measurement": "release of interleukin 1β (IL-1β), effectiveness relative to dexamethasone", "setting": "blood leukocytes; concentration of 16.67 μM, LPS, 24 hours", "value": "an effectiveness as for 500 ng of dexamethasone"}, {"measurement": "inhibition of the TNF-alpha-induced activation of NFκB", "setting": "NFκB", "value": "prevent the TNF-alpha-induced activation of NFκB"}]}
